Results taken from PubChem BioAssay (NCI).
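Cells were grown in 96-well plates and exposed to each compound for 48 hours at five concentrations; endpoints were interpolated linearly between bracketing concentrations, or set to the highest concentration if not reached. TGI is the concentration that stops growth completely.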

The compounds below were run on HL-60(TB) leukemia (assay: inhibition of tumour cell growth, NCI panel, 48 h).

`CC1=CC2C3(C)C(C)(C(C)=CP3(=O)c3c(C(C)C)cc(C(C)C)cc3C(C)C)C1P2(=O)c1c(C(C)C)cc(C(C)C)cc1C(C)C` (stereo not drawn) gave a TGI of 3.85 µM.

The compounds below were run on HOP-18 NSCLC (assay: inhibition of tumour cell growth, NCI panel, 48 h).

For `CC1=N/C(=C\c2ccc(/C=C3/N=C(C)OC3=O)cc2)C(=O)O1`, the TGI was greater than 100 µM.

Each compound was assayed on MALME-3M melanoma (assay: inhibition of tumour cell growth, NCI panel, 48 h).

`O=C1Oc2ccccc2C(=O)/C1=C1/C=C(c2ccccc2)SS1` and `O=C(NCc1ccccc1)c1cc2ccccc2oc1=Nc1cccc(C(F)(F)F)c1` cannot be ordered by TGI: greater than 100 µM for the first, greater than 100 µM for the second.

`Cc1ccc2c(c1)CN1c3ccc(C)cc3CN2C1c1ccccc1O` and `CC1=NN(C(=O)Cc2ccccc2)C(=O)/C1=C\c1ccc(O)cc1` cannot be ordered by TGI: greater than 100 µM for the first, greater than 100 µM for the second.

`N#CNC(N)=NCc1ccccc1` and `CC1=N/C(=C\c2ccc(/C=C3/N=C(C)OC3=O)cc2)C(=O)O1` cannot be ordered by TGI: greater than 100 µM for the first, greater than 100 µM for the second.

Compound `CC1=CC2C3(C)C(C)(C(C)=CP3(=O)c3c(C(C)C)cc(C(C)C)cc3C(C)C)C1P2(=O)c1c(C(C)C)cc(C(C)C)cc1C(C)C` (stereo not drawn) has a TGI of 5.79 µM.

These compounds were tested on MDA-MB-231 breast (assay: inhibition of tumour cell growth, NCI panel, 48 h).

`O=C1Oc2ccccc2C(=O)/C1=C1/C=C(c2ccccc2)SS1` and `O=C(NCc1ccccc1)c1cc2ccccc2oc1=Nc1cccc(C(F)(F)F)c1` cannot be ordered by TGI: greater than 100 µM for the first, greater than 100 µM for the second.

`CC1=CC2C3(C)C(C)(C(C)=CP3(=O)c3c(C(C)C)cc(C(C)C)cc3C(C)C)C1P2(=O)c1c(C(C)C)cc(C(C)C)cc1C(C)C` (stereo not drawn) was tested, and the TGI was 3.87 µM.

What follows are compounds tested on IGROV1 ovarian (assay: inhibition of tumour cell growth, NCI panel, 48 h).

`O=C1Oc2ccccc2C(=O)/C1=C1/C=C(c2ccccc2)SS1` and `O=C(NCc1ccccc1)c1cc2ccccc2oc1=Nc1cccc(C(F)(F)F)c1` cannot be ordered by TGI: greater than 100 µM for the first, greater than 100 µM for the second.

`Cc1ccc2c(c1)CN1c3ccc(C)cc3CN2C1c1ccccc1O` and `CC1=NN(C(=O)Cc2ccccc2)C(=O)/C1=C\c1ccc(O)cc1` cannot be ordered by TGI: greater than 100 µM for the first, greater than 100 µM for the second.

`N#CNC(N)=NCc1ccccc1` and `CC1=N/C(=C\c2ccc(/C=C3/N=C(C)OC3=O)cc2)C(=O)O1` cannot be ordered by TGI: greater than 100 µM for the first, greater than 100 µM for the second.

Compound `CC1=CC2C3(C)C(C)(C(C)=CP3(=O)c3c(C(C)C)cc(C(C)C)cc3C(C)C)C1P2(=O)c1c(C(C)C)cc(C(C)C)cc1C(C)C` (stereo not drawn) has a TGI of 6.1 µM.

These compounds were tested on OVCAR-5 ovarian (assay: inhibition of tumour cell growth, NCI panel, 48 h).

`O=C1Oc2ccccc2C(=O)/C1=C1/C=C(c2ccccc2)SS1` and `O=C(NCc1ccccc1)c1cc2ccccc2oc1=Nc1cccc(C(F)(F)F)c1` cannot be ordered by TGI: greater than 100 µM for the first, greater than 100 µM for the second.

`Cc1ccc2c(c1)CN1c3ccc(C)cc3CN2C1c1ccccc1O` and `CC1=NN(C(=O)Cc2ccccc2)C(=O)/C1=C\c1ccc(O)cc1` cannot be ordered by TGI: greater than 100 µM for the first, greater than 100 µM for the second.

Going from `N#CNC(N)=NCc1ccccc1` to `CC1=CC2C3(C)C(C)(C(C)=CP3(=O)c3c(C(C)C)cc(C(C)C)cc3C(C)C)C1P2(=O)c1c(C(C)C)cc(C(C)C)cc1C(C)C` (stereo not drawn), the TGI falls from greater than 100 µM to 6.31 µM.

Each compound was assayed on M19-MEL melanoma (assay: inhibition of tumour cell growth, NCI panel, 48 h).

`Cc1ccc2c(c1)CN1c3ccc(C)cc3CN2C1c1ccccc1O` and `CC1=NN(C(=O)Cc2ccccc2)C(=O)/C1=C\c1ccc(O)cc1` cannot be ordered by TGI: greater than 100 µM for the first, greater than 100 µM for the second.

`N#CNC(N)=NCc1ccccc1` and `CC1=N/C(=C\c2ccc(/C=C3/N=C(C)OC3=O)cc2)C(=O)O1` cannot be ordered by TGI: greater than 100 µM for the first, greater than 100 µM for the second.

The compounds below were run on SF-539 CNS (assay: inhibition of tumour cell growth, NCI panel, 48 h).

`O=C1Oc2ccccc2C(=O)/C1=C1/C=C(c2ccccc2)SS1` and `CC1=NN(C(=O)Cc2ccccc2)C(=O)/C1=C\c1ccc(O)cc1` cannot be ordered by TGI: greater than 100 µM for the first, greater than 100 µM for the second.

`Cc1ccc2c(c1)CN1c3ccc(C)cc3CN2C1c1ccccc1O` and `CC1=N/C(=C\c2ccc(/C=C3/N=C(C)OC3=O)cc2)C(=O)O1` cannot be ordered by TGI: greater than 100 µM for the first, greater than 100 µM for the second.

With `N#CNC(N)=NCc1ccccc1` the TGI was greater than 100 µM.

These compounds were tested on SK-MEL-28 melanoma (assay: inhibition of tumour cell growth, NCI panel, 48 h).

`O=C1Oc2ccccc2C(=O)/C1=C1/C=C(c2ccccc2)SS1` and `O=C(NCc1ccccc1)c1cc2ccccc2oc1=Nc1cccc(C(F)(F)F)c1` cannot be ordered by TGI: greater than 100 µM for the first, greater than 100 µM for the second.

`Cc1ccc2c(c1)CN1c3ccc(C)cc3CN2C1c1ccccc1O` and `CC1=NN(C(=O)Cc2ccccc2)C(=O)/C1=C\c1ccc(O)cc1` cannot be ordered by TGI: greater than 100 µM for the first, greater than 100 µM for the second.

`N#CNC(N)=NCc1ccccc1` and `CC1=N/C(=C\c2ccc(/C=C3/N=C(C)OC3=O)cc2)C(=O)O1` cannot be ordered by TGI: greater than 100 µM for the first, greater than 100 µM for the second.

`CC1=CC2C3(C)C(C)(C(C)=CP3(=O)c3c(C(C)C)cc(C(C)C)cc3C(C)C)C1P2(=O)c1c(C(C)C)cc(C(C)C)cc1C(C)C` (stereo not drawn) showed a TGI of 8.23 µM.

The compounds below were run on HCT-15 colon (assay: inhibition of tumour cell growth, NCI panel, 48 h).

`O=C1Oc2ccccc2C(=O)/C1=C1/C=C(c2ccccc2)SS1` and `O=C(NCc1ccccc1)c1cc2ccccc2oc1=Nc1cccc(C(F)(F)F)c1` cannot be ordered by TGI: greater than 100 µM for the first, greater than 100 µM for the second.

`Cc1ccc2c(c1)CN1c3ccc(C)cc3CN2C1c1ccccc1O` and `CC1=NN(C(=O)Cc2ccccc2)C(=O)/C1=C\c1ccc(O)cc1` cannot be ordered by TGI: greater than 100 µM for the first, greater than 100 µM for the second.

`N#CNC(N)=NCc1ccccc1` and `CC1=N/C(=C\c2ccc(/C=C3/N=C(C)OC3=O)cc2)C(=O)O1` cannot be ordered by TGI: greater than 100 µM for the first, greater than 100 µM for the second.

Compound `CC1=CC2C3(C)C(C)(C(C)=CP3(=O)c3c(C(C)C)cc(C(C)C)cc3C(C)C)C1P2(=O)c1c(C(C)C)cc(C(C)C)cc1C(C)C` (stereo not drawn) has a TGI of 5.87 µM.
